Results on ten compounds are retold here after patent US5643947A, “ω-amino-α-phenylalkanonitrile derivatives” (G. D. Searle & Co., priority 1995, dated 1997).

Read-outs that look alike come from different tables or passages of the source. A value given as a limit tells only on which side of the number the result lay.

The test system of series [1] is serotonin-2 (5-HT2) receptors of both blood vessels and brain. The settings on record: DeFeudis 1989; cited from earlier work.
The subject of series [2] is calcium channel. To be noted: DeFeudis 1989; cited from earlier work.
Series [3] concerns the target T1, slow Ca^2+ channel binding sites (Cavia porcellus, UniProt O35505).
T1 construct: forebrain; from tissue; host or cells: guinea-pig forebrain
Put plainly: Ca2+ receptor binding, 3H-nitrendipine competition. Further details: species or system guinea-pig. To be noted: for competition curve at slow Ca^2+ channel binding sites: 3H-nitrendipine competition, in words; for Ki: guinea-pig forebrain, 3H-nitrendipine 0.2 nM, pH 7.4, 25 °C, 90 min, read-out: CA2^+ BINDING pKi (converted). As for the experimental part:
(§1) Receptor binding experiments were conducted under the experimental conditions described in Table III. ^3 H-nitrendipine is the radioligand of choice to determine, after competition at different concentrations, the affinity of compounds of the invention, for the slow Ca^2+ channel binding sites. […] After this in vitro biochemical testing, the compounds of the invention were tested for their CA^2+ antagonist properties on isolated organs. The method used was updated from M Spedding (Nauyn-Schmiedeberg's Arch. Pharmacol., 318, 234-240, 1982) and can be summarized as follows: Aorta rings from male rats were prepared and maintained in oxygenated Krebs solution at 37° C. The contractions were induced by 40 mM K+ in the absence or in the presence of the test compound. Each test compound was tested at least twice. […] The phasic and tonic parts of each response elicited by K+ were considered separately and were expressed in % of their corresponding controls. The IC50 values (from pIC50) were estimated by plotting the % response against the log of the concentrations.
(§2) Methodological Data for In Vitro Binding Assay of Various Receptors
(§3) KD values (Dissociation Constant) were determined by Scatchard analysis. Ki values (Inhibition Constant) were calculated according to the Cheng and Prusoff equation, using IC50 values: [formula]

In series [4] the test system is Aorta rings. Put plainly: Ca2+ antagonism on isolated rat aorta rings, contractions induced by 40 mM K+. It counts as cell-based. To be noted: for inhibition of phasic and tonic phases of the contractions: in words. The method, then: as §1, with “The method used was updated from M Spedding (Nauyn-Schmiedeberg's Arch. Pharmacol., 318, 234-240, 1982) and can be summarized as follows: Aorta rings from male rats were prepared and maintained in oxygenated Krebs solution at 37° C.” left out

For series [5], the system named is femoral arterial circulation. Put plainly: Vasodilation in perfused hindlimb of anaesthetized dog. The settings on record: for VASODILATION score: 30 mcg/kg injected into perfused femoral artery, vs papaverine; for vasodilator activity compared with papaverine: 30 mcg/kg, in words. It counts as in vivo. The method, then:
The peripheral vasodilator activity of compounds of the invention was measured in anaesthetized dog at the femoral arterial circulation. For this procedure, the femoral artery (the collaterals of which were ligated) was perfused with a constant flow rate of blood taken from aorta. The perfusion pressure measured at the femoral artery varied as a function of the resistance of the perfused area. The test compounds in diluted solvents were directly injected in the system at a dose of 30 mcg/kg. With the blood circulation rate being maintained constant, vasodilation was thus measured by a decrease of the perfusion pressure, in comparison with the action of papaverine considered as standard. The vasodilator activity was rated as follows:
+: 1/3 of the papaverine activity.
++: 2/3 of the papaverine activity.
+++: activity equal to that of papaverine (i.e. 30 to 40 mm Hg).
++++: activity higher than that of papaverine.

Series [6] concerns spontaneously hypertensive rats. The series can be described thus: Antihypertensive activity in spontaneously hypertensive rats (SHR). It counts as in vivo, rat. The settings on record: 60 mg/kg oral; for SHR score: systolic pressure up to 3 hours; for lowering of the systolic blood pressure: SHR. The method, then:
The biological activity of the compounds of the invention was evaluated in vivo on spontaneous hypertensive rats. In this test, antihypertensive activity was tested by oral administration to non-anaesthetized, spontaneously hypertensive rats, on which the systolic arterial pressure was measured at the median coccygeal artery by means of a plethysmographic method [J. Roba, G. Lambelin, A. F. De Schaepdryver, Arch. Int. Pharmacodyn., 200, 182 (1972)]. The arterial pressure was measured every 30 minutes from two hours before to three hours after oral administration of 60 mg/kg of the test compounds or of a placebo (1% tragacanth gum mucilage). Only rats having a systolic pressure of 180 to 220 mmHg were used. Each compound was tested in two rats.
The antihypertensive effects were rated as follows:
+: reduction of 10 to 20 mm Hg.
++: reduction of 20 to 30 mm Hg.
+++: reduction of 30 to 40 mm Hg.
++++: reduction >40 mm Hg.

Series [7] addresses T2, 5HT2 receptor (Rattus norvegicus, UniProt P14842).
T2 construct: frontal cortex preparations of rat; from tissue; host or cells: rat frontal cortex
Put plainly: 5HT2 receptor binding, 3H-ketanserin, rat frontal cortex. As for the experimental part: as §2, §3

Series [8] addresses α1 -adrenergic receptor. The series can be described thus: α1-adrenergic receptor binding, 3H-WB4101, rat forebrain. The settings on record: for α1 pKi: rat forebrain, 3H-WB-4101 1.6 nM, pH 7.4, 25 °C, 15 min, values marked (2) are estimated; for affinity for the α1 -adrenergic receptor: 3H-WB4101, rat forebrain, in words. The method, then:
as §2, §3

Series [9] can be described thus: Acute oral toxicity in mice. The settings on record: mouse, in vivo, male mice, mortality over 15 days. The method, then: Compounds #1, #2 , #3, #4 and #7 were tested for acute toxicity. The acute toxicity was determined after oral administration of the test compound to mice. Compound to be tested was suspended in a 1% tragacanth gum mucilage and was administered by means of an intragastric tube to a group of three male mice per dose. The mortailty was recorded over a period of 15 days.

Where [10] appears, read: 37 °C, phasic part, read-out: AORTA/K+ pIC50 phasic (converted).
[11] abbreviates: 37 °C, tonic part, read-out: AORTA/K+ pIC50 tonic (converted).
The mark [12] stands for this setting: read-out: Concentration inhibiting the contractions by 50%.

T2 sequence (P14842 whole entry): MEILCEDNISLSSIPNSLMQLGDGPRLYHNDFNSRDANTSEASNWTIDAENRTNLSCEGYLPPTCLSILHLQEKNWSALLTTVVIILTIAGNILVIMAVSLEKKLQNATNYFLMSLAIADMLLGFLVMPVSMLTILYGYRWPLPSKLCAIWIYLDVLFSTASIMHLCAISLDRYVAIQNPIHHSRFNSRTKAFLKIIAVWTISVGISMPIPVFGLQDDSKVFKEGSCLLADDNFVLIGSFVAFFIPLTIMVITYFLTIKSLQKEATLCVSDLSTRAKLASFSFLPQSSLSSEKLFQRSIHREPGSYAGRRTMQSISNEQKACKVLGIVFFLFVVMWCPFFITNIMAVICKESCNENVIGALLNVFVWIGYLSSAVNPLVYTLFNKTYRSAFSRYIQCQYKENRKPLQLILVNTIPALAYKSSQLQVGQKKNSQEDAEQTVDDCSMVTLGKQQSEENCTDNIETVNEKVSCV
T1 sequence (O35505 whole entry): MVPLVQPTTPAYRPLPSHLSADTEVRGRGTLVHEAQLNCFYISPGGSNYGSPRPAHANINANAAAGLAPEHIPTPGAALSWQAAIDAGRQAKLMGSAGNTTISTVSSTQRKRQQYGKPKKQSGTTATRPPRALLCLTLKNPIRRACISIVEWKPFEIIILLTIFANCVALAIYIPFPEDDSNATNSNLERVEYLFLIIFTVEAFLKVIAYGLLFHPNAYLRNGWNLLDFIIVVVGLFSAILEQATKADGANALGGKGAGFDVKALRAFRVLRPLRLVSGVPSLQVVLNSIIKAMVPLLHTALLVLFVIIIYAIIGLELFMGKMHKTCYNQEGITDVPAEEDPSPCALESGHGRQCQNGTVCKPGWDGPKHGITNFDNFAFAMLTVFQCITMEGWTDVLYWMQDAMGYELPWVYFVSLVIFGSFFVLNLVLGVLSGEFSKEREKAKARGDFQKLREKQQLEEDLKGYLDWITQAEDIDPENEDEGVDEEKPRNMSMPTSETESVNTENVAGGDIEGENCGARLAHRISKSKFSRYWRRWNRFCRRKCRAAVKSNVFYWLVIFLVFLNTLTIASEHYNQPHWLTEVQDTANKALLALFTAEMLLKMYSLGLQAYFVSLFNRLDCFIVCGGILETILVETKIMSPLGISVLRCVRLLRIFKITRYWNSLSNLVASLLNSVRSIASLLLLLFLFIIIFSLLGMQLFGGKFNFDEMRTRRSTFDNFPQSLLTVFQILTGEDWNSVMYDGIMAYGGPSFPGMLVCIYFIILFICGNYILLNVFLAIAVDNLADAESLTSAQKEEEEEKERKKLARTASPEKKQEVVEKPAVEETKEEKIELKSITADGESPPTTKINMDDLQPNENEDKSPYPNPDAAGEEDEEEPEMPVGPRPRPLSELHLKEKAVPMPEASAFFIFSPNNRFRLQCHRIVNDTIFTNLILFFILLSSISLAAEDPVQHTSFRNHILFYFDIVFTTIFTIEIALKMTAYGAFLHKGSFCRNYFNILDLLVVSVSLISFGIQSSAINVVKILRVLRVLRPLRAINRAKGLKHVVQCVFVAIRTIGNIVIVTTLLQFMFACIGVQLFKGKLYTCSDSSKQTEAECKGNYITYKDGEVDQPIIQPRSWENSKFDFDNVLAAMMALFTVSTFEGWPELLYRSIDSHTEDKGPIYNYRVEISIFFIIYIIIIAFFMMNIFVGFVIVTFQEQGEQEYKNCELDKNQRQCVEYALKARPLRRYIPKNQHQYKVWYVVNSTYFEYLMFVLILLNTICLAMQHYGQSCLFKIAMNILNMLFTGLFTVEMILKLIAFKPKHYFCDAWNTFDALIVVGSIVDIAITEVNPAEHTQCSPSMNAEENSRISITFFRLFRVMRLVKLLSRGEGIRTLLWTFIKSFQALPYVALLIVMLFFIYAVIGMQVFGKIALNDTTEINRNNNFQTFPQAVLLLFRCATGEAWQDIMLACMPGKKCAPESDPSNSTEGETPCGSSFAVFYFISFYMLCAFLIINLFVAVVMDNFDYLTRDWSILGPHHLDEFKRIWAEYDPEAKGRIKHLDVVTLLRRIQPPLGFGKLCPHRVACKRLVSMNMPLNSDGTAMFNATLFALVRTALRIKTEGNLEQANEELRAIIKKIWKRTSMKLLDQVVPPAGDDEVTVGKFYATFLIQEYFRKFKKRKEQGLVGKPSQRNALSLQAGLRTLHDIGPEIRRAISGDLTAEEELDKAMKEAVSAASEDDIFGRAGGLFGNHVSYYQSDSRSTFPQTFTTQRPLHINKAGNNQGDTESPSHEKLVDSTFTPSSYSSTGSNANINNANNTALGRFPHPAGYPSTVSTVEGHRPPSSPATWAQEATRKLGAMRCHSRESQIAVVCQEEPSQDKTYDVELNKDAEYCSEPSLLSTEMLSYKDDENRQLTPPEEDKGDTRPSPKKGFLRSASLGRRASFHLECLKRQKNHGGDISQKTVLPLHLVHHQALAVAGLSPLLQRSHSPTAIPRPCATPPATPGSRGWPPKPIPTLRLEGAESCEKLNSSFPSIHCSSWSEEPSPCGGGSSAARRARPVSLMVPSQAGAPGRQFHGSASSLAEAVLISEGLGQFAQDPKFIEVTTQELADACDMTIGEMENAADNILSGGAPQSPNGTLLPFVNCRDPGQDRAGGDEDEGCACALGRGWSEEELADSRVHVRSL

On to `CC(C)[C@@](C#N)(CCCN(C)CCc1ccccc1)c1ccccc1` [(S)-emopamil], for which, in series [1], the “action at serotonin-2 (5-HT2) receptors” value is recorded as “antagonist at serotonin-2 (5-HT2) receptors”. For the same compound, the “calcium channel blocking activity” value in [2] is given as “showing calcium channel blocking activity”.

For `CCCCCCCCN(C)CCCC(C#N)(c1ccc(OC)c(OC)c1)C(C)C` (centres unmarked) [Compound #1, 5-[(n-octyl)methylamino]-2-(3,4-dimethoxyphenyl) -2-isopropyl-valeronitrile], in series [3], the “competition curve at slow Ca^2+ channel binding sites” value (shortened to “competition curve”) is reported as “does not reach the non-specific base-line”. In series [4] (setting [10]), the IC50 is 200 nM. In series [4] (setting [11]), the IC50 was 200 nM. In addition, the “inhibition of phasic and tonic phases of the contractions” value in series [4] was “similarly inhibited”. Also, in [4] (setting [12]), the IC50 came to 200 nM. In addition, in series [5], the VASODILATION score entry is “++++” and the “vasodilator activity compared with papaverine” value is on record as “more active than papaverine”. Further, in series [6], the SHR score result is “++++ (reduction >40 mm Hg.)” and the “lowering of the systolic blood pressure” value is “more than 40 mm Hg”. Further, the Ki in series [7] is 100 nM. The “α1 pKi” value in series [8] is on record as ≤ 6. Besides, in [9], the LD50 (as a rule, the dose at which mortality reaches 50%) at 360 h is > 300 mg/kg.

For `COc1ccc(C(C#N)(CCCN(C)CCCCc2ccccc2)C(C)C)cc1OC` (centres unmarked) [Compound #2, 5-[(4-phenylbutyl)methylamino]-2-(3,4-dimethoxyphenyl)-2-isopropylvaleronitrile], the “competition curve” value in [3] is reported as “does not reach the non-specific base-line”. Further, the IC50 in series [4] (setting [10]) was 63.1 nM. Besides, in [4] (setting [11]), the IC50 is 100 nM. Also, the “inhibition of phasic and tonic phases of the contractions” value in [4] is recorded as “similarly inhibited”. In [4] (setting [12]), the IC50 was 60 nM. Besides, in series [5], the VASODILATION score entry was “++++” and the “vasodilator activity compared with papaverine” value is “more active than papaverine”. In series [6], the SHR score entry is recorded as “++++ (reduction >40 mm Hg.)” and the “lowering of the systolic blood pressure” value is given as “more than 40 mm Hg”. This compound had a Ki in [7] of 100 nM. For the same compound, in series [8], the “affinity for the α1 -adrenergic receptor” value was “display affinity for the α1 -adrenergic receptor” and the “α1 pKi” value is reported as 7. The compound further had a 50% lethal dose (LD50) at 360 h in series [9] of 350 mg/kg.

For the compound `COc1ccc(C(C#N)(CCCN(C)CCCCCc2ccccc2)C(C)C)cc1OC` (centres unmarked) [compound 3, 5-[5-(phenylpentyl)methylamino]-2-(3,4-dimethoxyphenyl)-2-isopropylvaleronitrile], in [3], the “competition curve” value was “reaching the non-specific level” and the Ki is 251 nM. The VASODILATION score result in series [5] was “+++ (activity equal to that of papaverine (i.e. 30 to 40 mm Hg).)”. The compound further showed a Ki in series [7] of 10 nM. In series [8], the “α1 pKi” value is ≤ 6. Besides, the 50% lethal dose (LD50) at 360 h in series [9] amounted to 470 mg/kg.

As for `COc1ccc(C(C#N)(CCCN(C)CCCc2ccccc2)C(C)C)cc1OC` (centres unmarked) [compound 4], in series [3], the “competition curve” value is reported as “does not reach the non-specific base-line”. Besides, in series [7], the Ki was 31.6 nM. Besides, in [8], the “α1 pKi” value is ≤ 6. The same compound displayed an LD50 at 360 h in [9] of 540 mg/kg.

As to `CCCCCCCCN(CCCC(C#N)(c1ccc(OC)c(OC)c1)C(C)C)Cc1ccccc1` (centres unmarked) [compound 5], in series [3], the “competition curve” value is recorded as “reaching the non-specific level” and the Ki is 501 nM. The Ki in series [7] was > 1000 nM. Moreover, the “α1 pKi” value in series [8] was ≤ 6.

On to `CCCCCCCCCCN(C)CCCC(C#N)(c1ccc(OC)c(OC)c1)C(C)C` (centres unmarked) [compound 6, 5-[(n-decyl)methylamino]-2-(3,4-dimethoxyphenyl)-2-isopropylvaleronitrile], for which, in series [3], the “competition curve” value was “reaching the non-specific level” and the Ki is 39.8 nM. Also, in [4] (37 °C, one value printed for phasic/tonic, read-out: AORTA/K+ pIC50 phasic/tonic (converted)), the IC50 was ≥ 1000 nM. The compound also showed a Ki in series [7] of 100 nM. Besides, in series [8], the “α1 pKi” value is reported as < 6.

Take `COc1ccc(C(C#N)(CCCN(C)CC=Cc2ccccc2)C(C)C)cc1OC` (centres unmarked) [compound 7]: the “competition curve” value in series [3] is listed as “does not reach the non-specific base-line”. For the same compound, in [8], the “affinity for the α1 -adrenergic receptor” value is on record as “display affinity for the α1 -adrenergic receptor” and the “α1 pKi” value is 6.8. Further, in series [9], the LD50 at 360 h is > 1000 mg/kg.

As for `CCCCCCCCNCCCC(C#N)(c1ccc(OC)c(OC)c1)C(C)C` (centres unmarked) [compound 8], in series [3], the “competition curve” value was “reaching the non-specific level” and the Ki is 126 nM. For the same compound, the Ki in series [7] was 158 nM. For the same compound, in series [8], the “affinity for the α1 -adrenergic receptor” value is reported as “display affinity for the α1 -adrenergic receptor” and the “α1 pKi” value is 6.7.

Consider `CCOC(=O)C1=C(C)NC(C)=C(C(=O)OC)C1c1cccc([N+](=O)[O-])c1` (centres unmarked) [nitrendipine, reference compound], for which the Kd (commonly the constant that tells how readily two partners part at equilibrium) in series [3] was determined as 0.2 nM.
